Assay results taken from PMC4078515 (Pharmaceuticals, 2014).
Where “and” joins values, the source holds several entries; their conditions need not be identical. Equal entries are not always repeated. Where two headings read alike, the source gives them in different places.

Experiments:
[1] = test system: dopamine active transport (DAT); parameters: method as in preceding paper (paper 1 of this series); conditions: in vitro; ref preceding paper (paper 1 of this series); cited from earlier work
[2] = test system: norepinephrine transport (NET); parameters: method as in preceding paper (paper 1 of this series); conditions: in vitro; ref preceding paper (paper 1 of this series); cited from earlier work
in vivo [3] = conditions: guinea pig; for Cmax / Tmax / AUC(0-t) / half-life: male, Hartley albino
Procedure: (§1) The column used for chromatographic separation was a Waters Xbridge C18, 2.1 × 50 mm 2.5 µm at 30 °C. Mobile phase A: 10:40:50, 1.0% ammonium hydroxide solution in water, adjusted to pH 10.5 with formic acid: water: ACN. Mobile phase B: 10:90, 1.0% ammonium hydroxide solution in water, adjusted to pH 10.5 with formic acid: ACN. Flow rate: 250 µL/min, injection volume: 10 µL, run time: 10 min. Gradient, 100% A hold for 1 min, 0% B to 100% B over 4 min, hold 100% B for 4.5 min, 0% B at 9.51 min and equilibrate for 0.5 min.
(§2) The LTQ-XL ion trap mass spectrometer was coupled to the Accela LC system via an electrospray ionization (ESI) probe. The capillary temperature was maintained at 350 °C, sheath gas flow rate 50 arbitrary units, auxiliary gas flow rate 5 arbitrary units, sweep gas flow rate 0 arbitrary units, source voltage 3.20 kV, source current 100 µA, capillary voltage 43.00 V and tube lens 100 V. Compounds were detected in positive ion mode using selected ion monitoring (SIM). Hydroxybupropion was detected at (M+H)^+ = 256.1099, RT = 1.0 min, Rac-erythro-hydrobupropion (M+H)^+ = 242.1306, RT = 2.3 min, Rac-threo-hydrobupropion (M+H)^+ = 242.1306, RT 2.8 min, bupropion (M+H)^+ = 240.1150, RT = 2.0 min, N-methylbupropion (M+H)^+ = 254.1306, RT = 4.9 min, Rac-N-methyl-erythro-hydrobupropion (M+H)^+ = 256.1463, RT = 4.1 min and Rac-N-methyl-threo-hydrobupropion (M+H)^+ = 256.1463, RT = 4.6 min. The optimum detector conditions were found by tuning the instrument to be most sensitive for bupropion’s most abundant ion at 240 (m/z).
After acclimatization, male Hartley albino guinea-pigs, weighing 280–320 g were deprived of food for 16 h with free access to water (food withdrawal at 04:00 PM the day before). On the day of the experiment five guinea pigs per group were weighed then injected through the abdominal wall or fed by oral gavage with bupropion given at 40 mg/kg intraperitoneum. A second group of five guinea pigs were weighed then injected through the abdominal wall or fed by oral gavage with N-methyl bupropion given at 42 mg/Kg intraperitoneum.
Guinea pigs were placed under isoflurane anesthesia and approximately 100 µL of blood was collected using hematocrit capillaries or by cardiac puncture (terminal) into dry heparin/Li containing tubes before administration and then at five time points post-administration (0, 20, 40, 60, 120 and 180 min) for intraperitoneal study and seven time-points post administration (0, 20, 40, 60, 120, 180, 240 and 360 min) for oral study. After blood was collected, the tubes were inverted several times and placed on ice. The samples were centrifuged within 30 min maximum after sampling at 2205 g at 4 °C for 10 min. Plasma was transferred to polypropylene tubes and frozen with minimal delay at approximately −70 °C.
(§3) Guinea pig plasma was defrosted and centrifuged. Then, plasma (50 µL) was added to a 1.5 mL microcentrifuge tube. ACN (200 µL) was added and the mixture was vortex mixed. The resulting solution was centrifuged at 8000 g for 10 min. Supernatant (100 µL) was added to HCl (100 µL, 0.001 M). The solution was vortex mixed and added to a 100 µL micro-insert for LC-MS analysis.
Pharmacokinetic calculations were determined on Graphpad Prism software. Michaelis-Menten parameters were determined by non-linear regression analysis. The pharmacokinetic data was interpreted using a one-compartment model where the amount of drug present in the body at any given time t [A(t)] is described in Equation (1).
Drug concentration: A(t) = Cp(t)V(1) where Cp(t) and V are the drug concentration in the plasma and the apparent volume of distribution respectively. At least five sample time points were collected including at least one time point before tmax and three time points during the terminal phase for half-life estimation.

[4] = N-demethylation of N-methylbupropion to bupropion, substrate saturation study; type: in vitro ADME; conditions: 0.1 mg/mL guinea pig S9 liver fraction, 50–1000 μM, 20 min, 37 °C, n = 3
Procedure: Guinea pig S9 liver fraction, NADPH regenerating solutions A and B were thawed rapidly to 37 °C, then kept on wet ice until ready for use. A number of different concentration substrate solutions were prepared were the maximum concentration of DMSO was 1%, and the concentration of guinea pig S9 liver fraction, NADP regenerating system solution B and phosphate buffer was fixed. After incubation for 5 min, NADP regenerating system solution A was added and the metabolism was initiated. Final volume was 100 μL. The tube was inverted twice and vortex mixed. The final concentrations in this solution was 50–1000 μM prodrug, 0.1 mg/mL guinea-pig S9 liver fraction, 1.3 mM NADP^+, 0.4 U/mL glucose-6-phosphate dehydrogenase and 1.0% DMSO. This solution was incubated for 20 min at 37 °C. The reaction was quenched by addition of 100 μL of ACN. […] The supernatant was analysed by LC-MS analysis.
Pharmacokinetic calculations were determined on Graphpad Prism software.
In selecting a guinea pig animal model for an in vivo study, it was prudent to first verify if an in vitro guinea pig model would carry out the same metabolic transformations. […] N-methylbupropion and bupropion concentrations were determined by LC-MS. […] Other unknown minor metabolites of N-methylbupropion were also detected but were not quantified at this stage. These were determined during the in vivo stage, discussed below.

in vivo [5] = type: in vivo; conditions: guinea pig; for concentration at 20 min / Kp at 20 min: Hartley, in vivo
Procedure: Guinea pig plasma was defrosted and centrifuged.
Guinea pig brain was defrosted. […] Supernatant (250 µL) was added to ACN 750 µL.
Brain levels were determined on a separate group.

in vivo [6] = conditions: Hartley, guinea pig, ip
Procedure: as §1, §2
An additional group of guinea-pigs were used for brain collection at a single time point (20 min). The day of the experiment four guinea pigs per group were weighed then injected through the abdominal wall with bupropion given at 40 mg/kg IP and N-methylbupropion given at 42 mg/Kg IP. At time 20 min post-injection, the animals were decapitated and the brain extracted and rinsed in cold physiological saline. The whole brain was fast frozen on dry ice and placed into pre-labeled vials and stored at approximately −70 °C (deep frozen).>
as §3
Guinea pig brain was defrosted. The whole brain was weighed into a beaker and 0.01 M HCl (20 mL) was added. The mixture was homogenized for 3 min on level 6 and allowed to settle for 10 min. An aliquot of the resulting suspension was centrifuged at 10,000 g for 10 min. Supernatant (250 µL) was added to ACN 750 µL. The mixture was centrifuged at 10,000 g for 10 min. 200 µL of the supernatant was added to 800 µL water. The clear solution was vortex mixed and analyzed by LC-MS.

[7] = pH dependence, cited from earlier work
[8] = ip, 42 mg/kg, Mean Cmax ± SD, plasma analyte after N-Methylbupropion dosed at 42 mg/Kg IP, n = 5
[9] = ip, 42 mg/kg, tmax, plasma analyte after N-Methylbupropion dosed at 42 mg/Kg IP, n = 5
[10] = 20 min post dose of 42 mg/Kg N-methyl bupropion via oral gavage, read-out: Plasma levels
[11] = ip, 40 mg/kg, Cmax, plasma analyte after dosing bupropion 40 mg/Kg IP
[12] = ip, 40 mg/kg, tmax, plasma analyte after dosing bupropion 40 mg/Kg IP
[13] = 20 min post dose of 40 mg/Kg bupropion via oral gavage, read-out: Brain levels
[14] = 20 min post dose of 40 mg/Kg bupropion via oral gavage, read-out: Brain/plasma ratio
[15] = 20 min post dose of 40 mg/Kg bupropion via oral gavage, read-out: Plasma levels
[16] = 20 min post dose of 42 mg/Kg N-methyl bupropion via oral gavage, read-out: Brain levels
[17] = 20 min post dose of 42 mg/Kg N-methyl bupropion via oral gavage, read-out: Brain/plasma ratio

SMILES | Cmax (in vivo [3]; [8]) [ng/mL] | Tmax (in vivo [3]; [9]) [min] | concentration at 20 min (in vivo [5]; [10]) [ng/mL] | Kp at 20 min (in vivo [6]; 42 mg/kg) | AUC(0-t) (in vivo [3]; ip, 40 mg/kg) [ng·h/mL] | half-life (in vivo [3]; ip, 40 mg/kg) [min] | Cmax (in vivo [3]; [11]) [ng/mL] | Cmax (in vivo [3]; ip, 40 mg/kg, Mean Cmax ± SD) [ng/mL] | Tmax (in vivo [3]; [12]) [min] | concentration at 20 min (in vivo [5]; [13]) [ng/g] | Kp at 20 min (in vivo [5]; [14]) | concentration at 20 min (in vivo [5]; [15]) [ng/mL] | concentration at 20 min (in vivo [5]; [16]) [ng/g] | Kp at 20 min (in vivo [5]; [17]) | Kp at 20 min (in vivo [6]; 40 mg/kg) | also measured
CC(C(=O)c1cccc(Cl)c1)N(C)C(C)(C)C (stereo not drawn) [N-Me Bup, N-methylbupropion] | 180 ± 80 | 19.8 | 20 | 20.2 | – | – | – | – | – | – | – | – | – | – | – | activity at DAT compared to bupropion [1]: lower activity; activity at NET compared to bupropion [2]: lower activity; t½ (in vivo [3]; plasma analyte after N-Methylbupropion dosed at 42 mg/Kg via oral gavage, n = 5): <LOQ; Vmax [4]: 419.2 ± 13.65 pmol/min/mg S9; Brain/plasma ratio (in vivo [5]; 20 min post dose of 42 mg/Kg N-methyl bupropion via oral gavage): <LOQ; Brain levels (in vivo [5]; 20 min post dose of 42 mg/Kg N-methyl bupropion via oral gavage, listed as N-MeBup, 42 mg/kg): <LOQ; Brain levels (in vivo [5]; 20 min post dose of 42 mg/Kg N-methyl bupropion via oral gavage, listed as N-methylbupropion, 42 mg/kg): below the limit of quantitation
C[C@@H](NC(C)(C)C)[C@H](O)c1cccc(Cl)c1 [THB, threo-hydrobupropion] | 970 ± 280 | 60 | 540 | 12.1 | 2860 | 198 | 1230 ± 307 | 1220 ± 310 | 20 | 970 | 1.17 | 830 | 620 | 1.15 | 6.54 | Tmax (in vivo [3]; in vivo, 42 mg/Kg): 60 min; Tmax (in vivo [3]; ip, 40 mg/kg, tmax): 19.8 min
CC(NC(C)(C)C)C(=O)c1cccc(Cl)c1 (stereo not drawn) [Bup, Bupropion] | 380 ± 90 | 19.8 | 50 | 17.1 | – | – | 869 ± 190 | – | 20 | 430 | 4.78 | 90 | 460 | 9.2 | 11.2 | stability of freebase ([7]; aqueous): suffers from hydrolysis and oxidation at pH > 5; sample stability in plasma ([7]; plasma samples, ref 14,15 (supplement)): stable at low pH; Cmax (in vivo [3]; ip, 40 mg/kg, Mean Cmax ± SD, plasma analyte after Bupropion dosed at 40 mg/Kg IP, n = 5): 870 ± 190 ng/mL; Tmax (in vivo [3]; ip, 40 mg/kg, tmax, plasma analyte after Bupropion dosed at 40 mg/Kg IP, n = 5): 19.8 min
C[C@H]([C@H](O)c1cccc(Cl)c1)N(C)C(C)(C)C (racemic) [N-Me THB, Rac-N-methyl-threo-hydrobupropion] | 80 ± 20 | 19.8 | 40 | 12.6 | – | – | – | – | – | – | – | – | 570 | 14.2 | – | –
C[C@H]1NC(C)(C)CO[C@]1(O)c1cccc(Cl)c1 (relative stereo) [BupOH, hydroxybupropion] | 720 ± 140 | 60 | – | 7.61 | 2330 | 408 | – | 950 ± 170 | – | – | – | – | – | – | 6.3 | Tmax (in vivo [3]; in vivo): 60 min; Tmax (in vivo [3]; ip, 40 mg/kg): 39.6 min; Kp at 20 min (in vivo [5]; po, 40 mg/kg): 0.5; concentration at 20 min (in vivo [5]; po, 40 mg/kg): 370 ng/g and 730 ng/mL; Kp at 20 min (in vivo [5]; po, 42 mg/kg): 0.4; concentration at 20 min (in vivo [5]; po, 42 mg/kg): 220 ng/g and 550 ng/mL
